Viability data for 30 molecules are collected here from PMC12040169 (PLOS Biology, 2025).

The structures appear in SMILES notation.

A short description of this data set: in vitro. The settings on record: human, hela cells, % viability.
Take `O=C1c2ccccc2C(=O)N1CCc1nc2c3c4c(sc3ncn2n1)CCCCC4` [CBK268327]: the viability at 28.5 h, 10 µM was determined as 96.6%.

`c1ccc(OCc2nn3c(Cn4nnc5ccccc54)nnc3s2)cc1` [CBK268330]: the viability at 28.5 h, 10 µM was determined as 95.9%.

Turning to `Cc1ccc(C(=O)O)cc1NC(=O)C(C)Oc1cccc(Cl)c1` (stereo not drawn) [CBK268331], the viability at 28.5 h, 10 µM worked out at 95.7%.

On to `COc1cc2[nH]c(=S)n(CCc3c[nH]cn3)c(=O)c2cc1OC` [CBK268333], for which the viability at 28.5 h, 10 µM came out at 102%.

For `CSc1nsc(SCc2cnc(C)nc2N)n1` [CBK268337], the viability at 28.5 h, 10 µM stood at 105%.

For `COC(=O)COc1ccc(NC(=O)c2ccc([N+](=O)[O-])c(C)c2)cc1` [CBK268338], the viability at 28.5 h, 10 µM stood at 103%.

`CC1CCN(S(=O)(=O)c2ccc(NC(=O)CN3CCOCC3)cc2)CC1` [CBK268339]: the viability at 28.5 h, 10 µM is 81.4%.

In the case of `O=C(CCc1nc(-c2ccccc2F)no1)Nc1ccccc1[N+](=O)[O-]` [CBK268341], the viability at 28.5 h, 10 µM was determined as 86.9%.

Turning to `CN1CCN(c2ccccc2NC(=O)c2cccc(OCc3ccccc3)c2)CC1` [CBK268345], the viability at 28.5 h, 10 µM was 102%.

Take `O=C(Nc1ccc(S(=O)(=O)N2CCCCC2)cc1)c1ccc(NS(=O)(=O)c2ccccc2)cc1` [CBK268348]: the viability at 28.5 h, 10 µM stood at 88.3%.

With `Cc1nnc(SCC(=O)n2c3c(c4ccccc42)CCCC3)n1C` [CBK268351], the viability at 28.5 h, 10 µM was 111%.

Take `COc1ccc(CCNS(=O)(=O)c2ccc(C3CNC(=O)C3)cc2)cc1OC` (stereo not drawn) [CBK268352]: the viability at 28.5 h, 10 µM was 112%.

For the molecule `Cc1ccc(S(=O)(=O)NC(C)(C)CSc2ccccc2)cc1` [CBK268354], the viability at 28.5 h, 10 µM came to 88.6%.

As for `COc1cc2c(cc1NS(=O)(=O)N1CCCCC1)oc1ccccc12` [CBK268355], the viability at 28.5 h, 10 µM worked out at 85.8%.

`O=C(CSc1nnc2c(n1)[nH]c1ccccc12)NCCOc1ccccc1` [CBK268358]: the viability at 28.5 h, 10 µM amounted to 101%.

Consider `Cn1c(COc2ccc(Cl)cc2Cl)nnc1SCC(=O)N1c2ccccc2SC2C=CC=CC21` (stereo not drawn) [CBK268359], for which the viability at 28.5 h, 10 µM stood at 103%.

On to `Cc1nc2ccccc2nc1CSc1nnc(Cc2ccccc2)n1-c1ccccc1` [CBK268360], for which the viability at 28.5 h, 10 µM worked out at 104%.

Turning to `Cc1cccc(C(=O)O)c1NC(=O)Cc1cccc2ccccc12` [CBK268361], the viability at 28.5 h, 10 µM worked out at 111%.

Consider `Cn1c(CN2CCN(S(C)(=O)=O)CC2)nc2cc([N+](=O)[O-])ccc21` [CBK268362], for which the viability at 28.5 h, 10 µM stood at 98.4%.

As for `COC(=O)c1c(C)n(CCCNc2ccc([N+](=O)[O-])cc2Cl)c2ccc(O)cc12` [CBK268363], the viability at 28.5 h, 10 µM amounted to 86.2%.

Turning to `NC(=O)C1(N2CCCCC2)CCN(CC(=O)Nc2ccc(Br)cc2)CC1` [CBK268364], the viability at 28.5 h, 10 µM came out at 86.2%.

Take `O=C(Nc1ccc(Cc2ccc(NC(=O)c3ccccc3F)c(O)c2)cc1O)c1ccccc1F` [CBK268366]: the viability at 28.5 h, 10 µM amounted to 90.4%.

On to `CCNS(=O)(=O)c1ccc(CCC(=O)Nc2ccc3c(c2)OCO3)cc1` [CBK268367], for which the viability at 28.5 h, 10 µM was 101%.

With `Cc1cc(C)n2c(SCC(C)(C)NS(=O)(=O)c3ccccc3)nnc2n1` [CBK268369], the viability at 28.5 h, 10 µM is 111%.

As for `COc1ccc2[nH]c(/C(C#N)=C\c3ccc(-c4cc(C(=O)O)ccc4Cl)o3)nc2c1` [CBK268370], the viability at 28.5 h, 10 µM was 90.4%.

Take `COc1ccccc1-c1nn2c(Cn3nnc4ccccc43)nnc2s1` [CBK268373]: the viability at 28.5 h, 10 µM was found to be 82.4%.

Turning to `COC(=O)Nc1ncc(CN2CCc3ccccc3C2)s1` [CBK268376], the viability at 28.5 h, 10 µM turned out to be 97.5%.

As to `O=C(COc1ccc(S(=O)(=O)N2CCOCC2)cc1)NCc1ccco1` [CBK268377], the viability at 28.5 h, 10 µM worked out at 108%.

In the case of `Cc1cc(C)n(-c2nc3cc(Cl)ccc3nc2Nc2ccc3c(c2)OCO3)n1` [CBK268380], the viability at 28.5 h, 10 µM came to 91.9%.

As to `CN(C)S(=O)(=O)n1cc(/C=C/c2nc(N)nc(-c3ccccc3O)n2)c2ccccc21` [CBK268386], the viability at 28.5 h, 10 µM is 119%.

Usually viability stands for a read-out of living cells in per cent, often relative to untreated cells.
